Experimental data published in patent US12643895B2, “Heteroaryl-substituted pyrazolo-pyridine protein kinase inhibitors for promoting liver regeneration or reducing or preventing hepatocyte death” (HepaRegeniX GmbH, priority 2019, dated 2026).

Assays:
Format in all cases: biochemical
MKK4 = biological target: T1, MKK4 (Homo sapiens, UniProt P45985); assay: 33PanQinase radiometric kinase assay, MKK4; conditions: category based on IC50-values; ATP at apparent Km; read-out: Potency MKK4
T1 construct: purchased ProQinase GmbH, Freiburg, Germany (assay service)
T1 sequence (P45985 1-399): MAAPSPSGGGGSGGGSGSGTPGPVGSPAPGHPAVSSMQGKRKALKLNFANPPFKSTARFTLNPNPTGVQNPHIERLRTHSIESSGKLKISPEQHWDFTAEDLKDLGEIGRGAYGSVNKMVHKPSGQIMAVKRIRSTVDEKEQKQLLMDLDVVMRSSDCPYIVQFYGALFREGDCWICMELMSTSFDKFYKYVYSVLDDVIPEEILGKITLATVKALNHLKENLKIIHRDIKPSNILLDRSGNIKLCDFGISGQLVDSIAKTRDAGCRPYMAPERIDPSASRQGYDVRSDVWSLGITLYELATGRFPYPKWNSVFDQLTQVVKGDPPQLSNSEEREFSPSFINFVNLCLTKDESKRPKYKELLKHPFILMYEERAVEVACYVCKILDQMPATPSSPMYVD
Description: (§1) The kinase activities of the compounds of the invention were measured using the 33PanQinase® Assay Service provided by ProQinase GmbH, Freiburg, Germany. Details of the assay conditions are disclosed on the website of ProQinase (https://www.proqinase.com/products-services-biochemical-assay-services/kinase-assays). In brief, all kinase assays were performed in 96-well FlashPlates™ from PerkinElmer (Boston, MA, USA) in a 50 μl reaction volume. The reaction cocktail was pipetted in four steps in the following order: • 20 μl of assay buffer (standard buffer) • 5 μl of ATP solution (in H2O) • 5 μl of test compound (in 10% DMSO) • 20 μl enzyme/substrate mix
(§2) The reaction cocktails were incubated at 30° C. for 60 minutes. The reaction is stopped with 50 μl of 2% (v/v) H3PO4, plates were aspirated and washed two times with 200 μl 0.9% (w/v) NaCl. Incorporation of ^33Pi was determined with a microplate scintillation counter (Microbeta, Wallac).
(§3) All assays were performed with a BeckmanCoulter/SAGIAN™ Core System.
(§4) In case of single concentration assays, the potency of the test compound is expressed as % residual activity. […] The fitting method used was a least-squares fit.

BRaf = biological target: T2, BRaf (Homo sapiens, UniProt P15056); assay: 33PanQinase radiometric kinase assay, BRaf (off-target); conditions: ratio IC50(off-target)/IC50(MKK4)
T2 construct: purchased ProQinase GmbH, Freiburg, Germany (assay service)
T2 sequence (P15056 whole entry): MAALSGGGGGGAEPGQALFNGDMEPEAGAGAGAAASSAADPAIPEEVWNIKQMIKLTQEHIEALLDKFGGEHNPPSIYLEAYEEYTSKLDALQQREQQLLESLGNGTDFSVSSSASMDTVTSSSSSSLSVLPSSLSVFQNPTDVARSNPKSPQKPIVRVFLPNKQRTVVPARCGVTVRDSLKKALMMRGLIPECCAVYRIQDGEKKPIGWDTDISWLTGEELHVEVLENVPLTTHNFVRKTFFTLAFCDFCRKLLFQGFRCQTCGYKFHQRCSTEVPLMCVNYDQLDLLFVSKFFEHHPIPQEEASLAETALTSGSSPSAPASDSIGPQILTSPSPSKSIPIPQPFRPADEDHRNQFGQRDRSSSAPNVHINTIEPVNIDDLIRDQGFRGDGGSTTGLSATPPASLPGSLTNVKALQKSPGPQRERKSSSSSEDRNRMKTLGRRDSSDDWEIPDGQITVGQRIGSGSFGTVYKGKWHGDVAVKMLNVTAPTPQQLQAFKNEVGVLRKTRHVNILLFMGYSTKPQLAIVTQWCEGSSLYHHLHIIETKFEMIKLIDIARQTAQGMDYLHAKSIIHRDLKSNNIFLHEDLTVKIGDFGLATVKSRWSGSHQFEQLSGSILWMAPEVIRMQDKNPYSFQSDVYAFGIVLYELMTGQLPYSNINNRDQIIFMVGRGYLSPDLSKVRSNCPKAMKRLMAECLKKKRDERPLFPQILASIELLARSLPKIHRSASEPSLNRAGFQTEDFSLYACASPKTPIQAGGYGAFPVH
Description: as §1, §2, §3, §4
(§5) Selectivity of test compounds against BRaf, JNK1 and MKK7, altogether denominated as off-targets was calculated by the ratio of IC50 (off-target)/IC50 (MKK4) and categorized as follows: […]

JNK1 = biological target: T3, JNK1 (Homo sapiens, UniProt P45983); assay: 33PanQinase radiometric kinase assay, JNK1 (off-target); conditions: ratio IC50(off-target)/IC50(MKK4)
T3 construct: purchased ProQinase GmbH, Freiburg, Germany (assay service)
T3 sequence (P45983 whole entry): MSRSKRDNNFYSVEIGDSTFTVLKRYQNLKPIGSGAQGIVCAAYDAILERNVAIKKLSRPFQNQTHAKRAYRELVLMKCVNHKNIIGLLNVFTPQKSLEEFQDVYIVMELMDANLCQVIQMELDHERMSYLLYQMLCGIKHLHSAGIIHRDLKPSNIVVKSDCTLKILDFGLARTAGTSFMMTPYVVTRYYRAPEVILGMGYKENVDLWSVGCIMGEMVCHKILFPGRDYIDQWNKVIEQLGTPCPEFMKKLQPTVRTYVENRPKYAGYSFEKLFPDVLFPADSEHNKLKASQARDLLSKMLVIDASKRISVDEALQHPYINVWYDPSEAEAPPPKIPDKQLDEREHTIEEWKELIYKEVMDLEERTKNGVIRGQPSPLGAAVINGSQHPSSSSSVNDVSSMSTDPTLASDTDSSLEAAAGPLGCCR
Description: as §1, §2, §3, §4, §5

MKK7 = biological target: T4, MKK7 (Homo sapiens, UniProt O14733); assay: 33PanQinase radiometric kinase assay, MKK7 (off-target); conditions: ratio IC50(off-target)/IC50(MKK4)
T4 construct: purchased ProQinase GmbH, Freiburg, Germany (assay service)
T4 sequence (O14733 1-419): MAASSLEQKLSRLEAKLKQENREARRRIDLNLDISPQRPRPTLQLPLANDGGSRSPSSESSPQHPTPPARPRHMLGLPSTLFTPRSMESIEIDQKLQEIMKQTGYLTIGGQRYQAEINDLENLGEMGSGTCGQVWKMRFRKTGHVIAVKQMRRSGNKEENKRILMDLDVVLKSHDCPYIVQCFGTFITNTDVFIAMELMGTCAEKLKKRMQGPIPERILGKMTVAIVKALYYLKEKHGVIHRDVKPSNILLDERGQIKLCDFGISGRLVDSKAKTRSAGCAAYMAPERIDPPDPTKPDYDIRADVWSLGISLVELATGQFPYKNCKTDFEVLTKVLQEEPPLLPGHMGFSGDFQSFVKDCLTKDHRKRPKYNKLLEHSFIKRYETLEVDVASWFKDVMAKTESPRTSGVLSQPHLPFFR
Description: as §1, §2, §3, §4, §5

Row | IC50 (MKK4) [nM] | Selectivity Braf (BRaf) | Selectivity JNK1 (JNK1) | Selectivity MKK7 (MKK7) | SMILES
1 | 100 to 1000 | + (10 ≥ IC50(off-target)/IC50(MKK4) > 3) | ◯ | +++ (IC50(off-target)/IC50(MKK4) > 100) | O=C(c1c(F)ccc(NS(=O)(=O)Cc2ccccc2)c1F)c1n[nH]c2ncc(-c3cnc(C4CC4)nc3)cc12 [Example 1, N-(3-(5-(2-cyclopropylpyrimidin-5-yl)-1H-pyrazolo[3,4-b]pyridine-3-carbonyl)-2,4-difluorophenyl)-1-phenylmethanesulfonamide]
2 | < 100 | +++ (IC50(off-target)/IC50(MKK4) > 100) | +++ (IC50(off-target)/IC50(MKK4) > 100) | +++ (IC50(off-target)/IC50(MKK4) > 100) | CS(=O)(=O)Nc1c(F)ccc(C(=O)c2n[nH]c3ncc(-c4ccc(Cl)cc4)cc23)c1F [Example 2, N-(3-(5-(4-chlorophenyl)-1H-pyrazolo[3,4-b]pyridine-3-carbonyl)-2,6-difluorophenyl)methanesulfonamide]
3 | 100 to 1000 | +++ (IC50(off-target)/IC50(MKK4) > 100) | +++ (IC50(off-target)/IC50(MKK4) > 100) | +++ (IC50(off-target)/IC50(MKK4) > 100) | CCCS(=O)(=O)Nc1c(F)ccc(C(=O)c2n[nH]c3ncc(-c4cncnc4)cc23)c1F [Example 6, N-(2,6-difluoro-3-(5-(pyrimidin-5-yl)-1H-pyrazolo[3,4-b]pyridine-3-carbonyl)phenyl)propane-1-sulfonamide]

Row | SMILES | IC50 (MKK4) [nM] | Selectivity Braf (BRaf) | Selectivity JNK1 (JNK1) | Selectivity MKK7 (MKK7)
4 | CCS(=O)(=O)Nc1c(F)ccc(C(=O)c2n[nH]c3ncc(-c4ccc(Cl)cc4)cc23)c1F [Example 3, N-(3-(5-(4-chlorophenyl)-1H-pyrazolo[3,4-b]pyridine-3-carbonyl)-2,6-difluorophenyl)ethanesulfonamide] | 100 to 1000 | +++ (IC50(off-target)/IC50(MKK4) > 100) | ++ (100 ≥ IC50(off-target)/IC50(MKK4) > 10) | +++ (IC50(off-target)/IC50(MKK4) > 100)
5 | CCOC(=O)c1ccc(-c2cnc3[nH]nc(C(=O)c4ccc(F)c(NS(C)(=O)=O)c4F)c3c2)cc1 [Example 4, Ethyl 4-(3-(2,4-difluoro-3-(methylsulfonamido)benzoyl)-1H-pyrazolo[3,4-b]pyridin-5-yl)benzoate] | 100 to 1000 | +++ (IC50(off-target)/IC50(MKK4) > 100) | ++ (100 ≥ IC50(off-target)/IC50(MKK4) > 10) | +++ (IC50(off-target)/IC50(MKK4) > 100)
6 | COC(=O)c1ccc(-c2cnc3[nH]nc(C(=O)c4ccc(F)c(NS(C)(=O)=O)c4F)c3c2)cn1 [Example 5, Methyl 5-(3-(2,4-difluoro-3-(methylsulfonamido)benzoyl)-1H-pyrazolo[3,4-b]pyridin-5-yl)picolinate] | 1000 to 10000 | +++ (IC50(off-target)/IC50(MKK4) > 100) | + (10 ≥ IC50(off-target)/IC50(MKK4) > 3) | ++ (100 ≥ IC50(off-target)/IC50(MKK4) > 10)
7 | CCCS(=O)(=O)Nc1c(F)ccc(C(=O)c2n[nH]c3ncc(-c4cnc(C)nc4)cc23)c1F [Example 7, N-(2,6-difluoro-3-(5-(2-methylpyrimidin-5-yl)-1H-pyrazolo[3,4-b]pyridine-3-carbonyl)phenyl)propane-1-sulfonamide] | < 100 | +++ (IC50(off-target)/IC50(MKK4) > 100) | +++ (IC50(off-target)/IC50(MKK4) > 100) | +++ (IC50(off-target)/IC50(MKK4) > 100)
8 | CCCS(=O)(=O)Nc1c(F)ccc(C(=O)c2n[nH]c3ncc(-c4cnc(C(=O)O)nc4)cc23)c1F [Example 8, 5-(3-(2,4-difluoro-3-(propylsulfonamido)benzoyl)-1H-pyrazolo[3,4-b]pyridin-5-yl)pyrimidine-2-carboxylic acid] | < 100 | +++ (IC50(off-target)/IC50(MKK4) > 100) | +++ (IC50(off-target)/IC50(MKK4) > 100) | ++ (100 ≥ IC50(off-target)/IC50(MKK4) > 10)
